Data taken from patent US8569358B2, “Use of silymarin and/or constituents thereof as skin or hair pigmentation promoters” (GreenPharma, priority 2005, dated 2013).
Values joined by “and” are separate entries in the source; they are usually repeats but may differ in a detail not shown here. Equal entries are not always repeated.

Columns and labels:
[1] = system: B16F10-line mouse melanoma cells; experiment: Melanin synthesis by B16F10-line melanocytes (7-day culture); type: cell-based; settings: 7 days
Method: The melanogenesis-stimulating effect of silybin was measured on B16F10-line mouse melanoma cells.
(§1) For silybin, the following were determined:
(§2) after culturing for 7 days under standard conditions, in 24-well plates, DMEM medium containing 10% calf serum:
the amount of melanin present in the cultures, by spectrophotometric measurement of the melanin produced, after alkaline extraction, relative to 100% of the control (the control corresponds to the test performed without test compound).

normal human melanocytes [2] = experiment: Protein synthesis (3H-leucine incorporation), normal human melanocytes; type: cell-based; settings: for Protein synthesis (3H-leucine), % of control / Protein synthesis (3H-leucine), cpm: 3 days; for Protein synthesis (3H-leucine), cpm: labelling last 24 hours
Method: (§3) after culturing for 3 days under standard conditions:
the effects on the metabolism of normal human melanocytes by incorporation of tritiated leucine into neosynthesized proteins (labelling for the last 24 hours).

[3] = system: normal human keratinocytes; experiment: Phagocytosis of fluorescent beads by keratinocytes (flow cytometry); type: cell-based; settings: for % Positive cells (cells which have phagocytozed more than twice the basal phagocytosis), single replicates / Positive cells, % Control / % Positive cells, Mean: 24 hours; for % Positive cells, Mean: triplicate
Method: The aim of this test is to show the effect of the compounds used according to the invention on modulation of the phagocytosis of particles by the keratinocytes.
Method: Normal human keratinocytes are cultured in KSFM medium and treated for 24 hours with the compounds according to the invention, in the presence of calibrated fluorescent beads (Molecular Probes) of the size of melanosomes. The phagocytosis of the particles is visualized by fluorescence microscopy, and the cells are then harvested after trypsination and analysed by flow cytometry, to determine the number of cells that have phagocytozed a threshold number of particles and the intensity of the phagocytozed overall fluorescence (10 000 cells analysed per condition, in triplicate).

keratinocytes = experiment: Proliferation/protein synthesis of keratinocytes; type: cell-based
normal human melanocytes [4] = experiment: Cytotoxicity (MTT reduction) and amount of proteins (Bradford), normal human melanocyte cultures; type: cell-based; settings: for Proteins / MTT: 10 days; for MTT: control = 100
Excerpt: (§4) after culturing for 10 days under standard conditions, in 24-well plates, in Promocell medium free of “phorbol myristate acetate” (PMA):
the cytotoxicity, by estimating the reduction of “methyl thiazolyl tetrazolium” (MTT), the amount of proteins, by assay according to the Bradford method and observation of the cell lawns, […]

[5] = system: B16F10-line mouse melanoma cells; experiment: Cytotoxicity (MTT) and amount of proteins (Bradford), B16F10 cultures; type: cell-based; settings: for Proteins / MTT: 7 days; for MTT: control = 100
Excerpt: as §2
the cytotoxicity, by estimating the […] of MTT, the amount of proteins, by assay according to the Bradford method and observation of the cell lawns, […]

normal human melanocytes [6] = experiment: Proliferation (3H-thymidine incorporation), normal human melanocytes; type: cell-based; settings: 3 days; for Proliferation (3H-thymidine), cpm: labelling last 24 hours
Method: as §3
the effects on the proliferation of normal human melanocytes by incorporation of tritiated thymidine into DNA (labelling for the last 24 hours),

[7] = system: normal human hair follicles; experiment: Protection against degeneration of cultured human hair follicles; type: cell-based; settings: precultured 7 days, then treated 7 days
Excerpt: The aim of this test is to show the effect of the compounds used according to the invention on degeneration of the follicles in in vitro cultures of human hair follicles.
Method: Normal human hair follicles are isolated by microdissection of human scalp (lifting) and cultured as in Example 4. The bulbs are all precultured (“aged”, without treatment) for 7 days (D7), and then left untreated or treated by the invention for a further 7 days (D14). The follicles are photographed and the morphology is analysed.

[8] = target: T1, receptor MC1-R (melanocortin-1 receptor) (Mus musculus, UniProt Q01727); experiment: Displacement of [125I]NDP-alpha-MSH from receptor MC1-R; type: binding
Method: The binding of silybin to the receptor MC1-R (melanocortin-1 receptor) was studied.
Silybin was tested in a test of displacement of an extremely powerful MC1-R ligand: displacement of [^125I]NDP-alpha-MSH, (according to Siegrist et al, 1988, J. Recept. Res., 8: 323-343).

normal human melanocytes [9] = experiment: Melanin synthesis by normal human melanocytes (10-day culture); type: cell-based; settings: 10 days
Method: The melanogenesis-stimulating effect of silybin was measured on normal human melanocyte cultures.
as §1, §4
the amount of melanin present in the cultures, by spectrophotometric measurement of the melanin produced, after alkaline extraction, relative to 100% of the control (the control corresponds to the test performed without test compound);

[10] = target: T1, receptor MC1-R (melanocortin-1 receptor); settings: of the order of; read-out: Affinity of the ligand for MC1-R; cited from earlier work

T1 sequence (Q01727 whole entry): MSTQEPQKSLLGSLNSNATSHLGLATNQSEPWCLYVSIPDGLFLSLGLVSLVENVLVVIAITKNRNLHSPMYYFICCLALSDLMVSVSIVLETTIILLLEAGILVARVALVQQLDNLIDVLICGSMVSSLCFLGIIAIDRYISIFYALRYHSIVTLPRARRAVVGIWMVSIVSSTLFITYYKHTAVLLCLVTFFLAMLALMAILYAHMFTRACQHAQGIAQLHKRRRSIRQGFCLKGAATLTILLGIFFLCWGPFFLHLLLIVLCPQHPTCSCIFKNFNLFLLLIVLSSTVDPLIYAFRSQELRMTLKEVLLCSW

## COc1cc(C2Oc3cc([C@H]4Oc5cc(O)cc(O)c5C(=O)[C@@H]4O)ccc3OC2CO)ccc1O (stereo partly drawn) [Silybin, 2-[(2R,3R)-2,3-dihydro-3-(4-hydroxy-3-methoxyphenyl)-2-(hydroxymethyl)-1,4-benzodioxin-6-yl]-2,3-dihydro-3,5,7-trihydroxy-4H-1-benzopyran-4-one, (2R,3R)-(9CI)]
[1]; 0.00004%
  Melanin: 13.0 µg/mL
  Melanin, % relative to 100% of the control: 100%
[1]; 0.0002%
  Melanin: 15.0 µg/mL
  Melanin, % relative to 100% of the control: 115%
[1]; 0.001%
  Melanin: 33.0 µg/mL
  Melanin, % relative to 100% of the control: 250% and 254%
Normal human melanocytes [2]; 0.0002%
  Protein synthesis (3H-leucine), % of control: 120%
  Protein synthesis (3H-leucine), cpm: 11705 cpm
Normal human melanocytes [2]; 0.001%
  Protein synthesis (3H-leucine), % of control: 124%
  Protein synthesis (3H-leucine), cpm: 12099 cpm
Normal human melanocytes [2]; protein neosynthesis over 72 hours
  Protein synthesis increase: 20%
[3]; 0.0002%
  % Positive cells (cells which have phagocytozed more than twice the basal phagocytosis), single replicates: 44.29% and 42.92% and 45.88%
  Positive cells, % Control: 124%
  % Positive cells, Mean: 44%
[3]; 0.001%
  % Positive cells (cells which have phagocytozed more than twice the basal phagocytosis), single replicates: 52.19% and 50.74% and 49.94%
  Positive cells, % Control: 143%
  % Positive cells, Mean: 51%
[3]; flow cytometry and fluorescence microscopy
  Phagocytosis of fluorescent particles (in words): significant and reproducible stimulation of phagocytosis
keratinocytes
  Effect on proliferation/protein synthesis of keratinocytes: did not otherwise show any effect
Normal human melanocytes [4]; 0.00004% (w/v)
  Proteins: 0.765 mg/mL
  MTT: 113%
Normal human melanocytes [4]; 0.0002% (w/v)
  Proteins: 0.792 mg/mL
  MTT: 126%
Normal human melanocytes [4]; 0.001% (w/v)
  Proteins: 0.830 mg/mL
  MTT: 128%
Normal human melanocytes [4]; normal human melanocytes
  Cytotoxic activity (in words): without any cytotoxic activity
[5]; 0.00004%
  Proteins: 1.553 mg/mL
  MTT: 100%
[5]; 0.0002%
  Proteins: 1.594 mg/mL
  MTT: 100%
[5]; 0.001%
  Proteins: 1.457 mg/mL
  MTT: 89%
[5]; B16F10
  Cell metabolism according to MTT and protein synthesis parameters (in words): without modification of the cell metabolism
Normal human melanocytes [6]; 0.0002%
  Proliferation (3H-thymidine), % of control: 83%
  Proliferation (3H-thymidine), cpm: 5638 cpm
Normal human melanocytes [6]; 0.001%
  Proliferation (3H-thymidine), % of control: 53%
  Proliferation (3H-thymidine), cpm: 3622 cpm
[7]
  Pigmentation of the hair root: display pigmentation of all of the hair root
[8]; at 100 μM (0.005%)
  Displacement of [125I]NDP-alpha-MSH: 10%
[8]; at 500 μM
  Displacement of [125I]NDP-alpha-MSH: 30%
Normal human melanocytes [9]; 0.00004% (w/v)
  Melanin: 31.9 µg/mL
  Melanin, % relative to 100% of the control: 115%
Normal human melanocytes [9]; 0.0002% (w/v)
  Melanin: 37.1 µg/mL
  Melanin, % relative to 100% of the control: 134%
Normal human melanocytes [9]; 0.001% (w/v)
  Melanin: 41.5 µg/mL
  Melanin, % relative to 100% of the control: 150%

## [^125I]NDP-alpha-MSH
[10]
  Kd: ~0.1 nM
